According to US9243281B2, “Neuroprotective chemicals and methods for identifying and using same” (Board of Regents of The University of Texas System, priority 2013, dated 2016):

How the values were obtained:
p70 (NAMPT) = target: T1, p70 (NAMPT) (Homo sapiens, UniProt P43490); assay: binding competition for photo-crosslinking of P7C3-S326 to p70 in H2122 cells; details: 0.3 μM P7C3-S326 plus 5 μM competitor, p70 band intensity, P7C3-S326 alone compared with plus competitor, vehicle 1.0
T1 construct: endogenous in cells; host or cells: H2122 lung cancer cells
T1 sequence (P43490 whole entry): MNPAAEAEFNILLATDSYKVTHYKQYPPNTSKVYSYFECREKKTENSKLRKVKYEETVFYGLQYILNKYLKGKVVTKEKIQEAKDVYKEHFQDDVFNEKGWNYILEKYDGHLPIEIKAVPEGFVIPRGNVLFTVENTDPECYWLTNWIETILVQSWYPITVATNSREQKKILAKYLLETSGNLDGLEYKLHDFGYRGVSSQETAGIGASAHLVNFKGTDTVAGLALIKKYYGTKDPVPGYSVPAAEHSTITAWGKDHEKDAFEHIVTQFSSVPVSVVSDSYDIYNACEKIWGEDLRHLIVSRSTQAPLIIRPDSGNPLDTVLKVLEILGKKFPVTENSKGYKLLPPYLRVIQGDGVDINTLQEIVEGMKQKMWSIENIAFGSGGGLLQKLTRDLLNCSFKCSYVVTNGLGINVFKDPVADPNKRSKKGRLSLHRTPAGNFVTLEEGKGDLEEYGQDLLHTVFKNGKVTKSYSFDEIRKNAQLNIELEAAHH
Outline: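 H2122 cells were co-treated with 0.3 μM P7C3-S326 and 5 uM competing P7C3 analogs for 2 hours at 37° C, then UV-crosslinked at 306 nm for 15 minutes. Lysates were clicked to a fluorescent dye and run on SDS-PAGE. The p70 band was quantified relative to the DMSO control.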

Human NAMPT = target: T2, Human NAMPT (Homo sapiens, UniProt P43490); assay: in vitro NAMPT coupled-enzyme assay (NADH at OD340 nm); format: biochemical; details: relative reaction rate normalized by the control reaction run prior to compound addition; vehicle 0.98
T2 construct: made in house; host or cells: E. coli
T2 sequence (P43490 whole entry): as above
Experimental: FIGS. 7A-7C. […] (FIG. 7A) P7C3-A20 was incubated at indicated concentrations in a reaction coupled with three enzymes; NAMPT, NMNAT, and ADH (Experimental Procedures). NAMPT activity was recorded for the indicated period of time at OD340 nm by measuring NADH appearance, leading to the indicated concentration-time plot. […] (FIG. 7B) Analysis of the activities of thirty P7C3 analogs was performed to assess their effects on NAMPT enzymatic activity. The reaction rate was calculated as the slope of the concentration-time curve. Relative reaction rate was normalized by the control reaction run prior to compound addition. Data represents the mean of experimental duplicates. Scatter graphs were plotted to compare the ability of compounds to activate NAMPT relative to their ability to compete away P7C3-S326 crosslinking (top scatter plot), ability to protect cells from doxorubicin-mediated toxicity (middle scatter plot), or ability to facilitate NAD restoration in doxorubicin-treated cells (bottom scatter plot). […] Data are expressed as mean±SD of duplicate independent assays.
The enzymatic activity of recombinant NAMPT was monitored in a coupled assay wherein nicotinamide conversion to NMN was followed by sequential production of NAD (via the NMNAT enzyme) and NADH (via alcohol dehydrogenase). To minimize variation, a control reaction was run in each assay prior to compound addition.
Briefly, NAMPT first converted nicotinamide to NMN, which was followed by sequential production of NAD via nicotinamide mononucleotide adenylyl-transferase (NMNAT). NAD was then reduced to NADH by alcohol dehydrogenase (Sigma) using alcohol as the substrate. The resulting NADH was monitored by OD340 nm. […] 10 mM stocks of P7C3 analogs in DMSO were further diluted in ethanol prior to applying to the reaction. To minimize variation, a control reaction was run in each assay prior to compound addition.

[1] = tested on: hippocampal neurogenesis (Dentate Gyrus); assay: in vivo neurogenesis assay (BrdU+ cells in dentate gyrus); parameters: species or system mice; details: living mice; vehicle (DMSO) 7.3
Outline: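 Pools of ten compounds infused into the left ventricle of two adult mice per pool via cannula and mini-pump over one week, aimed at mid-nanomolar levels. Daily BrdU co-injected; brain sections stained for BrdU to count new dentate gyrus cells.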

| SMILES | Binding competition (p70 (NAMPT)) | NAMPT activation (Human NAMPT) | Neurogenesis # BrdU+ Cells (X10E06)/mm3 Dentate Gyrus [1] |
| --- | --- | --- | --- |
| COc1cccc(S(=O)(=O)CC(F)Cn2c3ccc(Br)cc3c3cc(Br)ccc32)c1 (centres unmarked) [S81] | 1.2 | 0.96 | 12.6 (X10E06)/mm3 |
| COc1cccc(N2CC(Cn3c4ccc(Br)cc4c4cc(Br)ccc43)OC2=O)c1 (centres unmarked) [S12] | 2.4 | 1.24 | 10.8 (X10E06)/mm3 |
| CS(=O)(=O)NC(=O)Cn1c2ccc(Br)cc2c2cc(Br)ccc21 [S232] | 0.9 | 1.00 | 8.4 (X10E06)/mm3 |
| N#CCn1c2ccc(Br)cc2c2cc(Br)ccc21 [S235] | 1.8 | 0.97 | 11.7 (X10E06)/mm3 |
| N#Cc1[nH]c2ccc(Br)cc2c1N [S222] | 1.3 | 1.02 | 15.1 (X10E06)/mm3 |
| NC(=O)Cn1c2ccc(Br)cc2c2cc(Br)ccc21 [S213] | 1.1 | 1.00 | 6.5 (X10E06)/mm3 |
| Brc1ccc2c(c1)c1cc(Br)ccc1n2CCCNc1ccccc1 [S33] | 2.8 | 1.12 | 11.6 (X10E06)/mm3 |
| c1ccc2c(c1)CCc1ccccc1N2 [S212] | 1.0 | 1.04 | 10.3 (X10E06)/mm3 |
| COc1cccc(NCC(F)(F)Cn2c3ccc(Br)cc3c3cc(Br)ccc32)c1 [S59] | 1.2 | 1.02 | 10.7 (X10E06)/mm3 |
| COc1ccc(S(=O)(=O)CC(F)Cn2c3ccc(Br)cc3c3cc(Br)ccc32)cc1 (centres unmarked) [S83] | 1.0 | 1.01 | 12.5 (X10E06)/mm3 |
| Cl.NCC(F)Cn1c2ccc(Br)cc2c2cc(Br)ccc21 (centres unmarked) [S217] | 2.6 | 0.89 | 12.3 (X10E06)/mm3 |
| O=S(=O)(CC(F)Cn1c2ccc(Br)cc2c2cc(Br)ccc21)c1cccc(O)c1 (centres unmarked) [S101] | 2.4 | 1.12 | 9.9 (X10E06)/mm3 |
| COC(=O)NC(=O)Cn1c2ccc(Br)cc2c2cc(Br)ccc21 [S234] | 1.0 | 0.93 | 17.8 (X10E06)/mm3 |
| O=S(=O)(CC(F)Cn1c2ccc(Br)cc2c2cc(Br)ccc21)c1ccccc1 (centres unmarked) [S53] | 1.4 | 1.05 | 17.1 (X10E06)/mm3 |
| COc1cccc(NCC(Cn2c3ccc(Br)cc3c3cc(Br)ccc32)OC)c1 (centres unmarked) [S13] | 1.7 | 1.21 | 11.6 (X10E06)/mm3 |
| COc1cccc(N(C)CC(F)Cn2c3ccc(Br)cc3c3cc(Br)ccc32)c1 (centres unmarked) [S11] | 2.0 | 1.21 | 12.8 (X10E06)/mm3 |
| FC(F)(COc1ccccc1)Cn1c2ccc(Br)cc2c2cc(Br)ccc21 [S56] | 1.0 | 1.06 | 8.4 (X10E06)/mm3 |
| CN1C(=O)CN=C(c2ccc(Cl)cc2)c2cc(Cl)ccc21 [S203] | 3.9 | 1.00 | 10.8 (X10E06)/mm3 |
| Brc1ccc2c(c1)c1cc(Br)ccc1n2Cc1nnn[nH]1 [S233] | 0.9 | 0.88 | 7.3 (X10E06)/mm3 |
| CNCCCC1c2ccccc2C=Cc2ccccc21.Cl [S90, Protriptyline, reference compound] | 1.4 | – | 11.1 (X10E06)/mm3 |
